# Data taken from patent US20250026733A1, “DEUTERATED ANALOGS OF PYROLE INHIBITORS OF ERK, SYNTHESIS THEREOF AND INTERMEDIATES THERETO” (BIOMED VALLEY DISCOVERIES, INC., priority 2022, published 2025).
# Like-named read-outs stand apart in the source and are kept apart here. Marks after values point to notes of the source that are not given here.
# What was measured:
# [1] = test system: A375 cells; experiment: A375 proliferation assay (Cell TiterGlo); format: cell-based; details: Homo sapiens, A-375, 72 hours
# Protocol: Mechanism of Action (MOA) Cell Assay—A375 Cell Proliferation, pERK/ERK and pRSK/RSK Analysis:
# Briefly, A375 cells were plated at 10,000 cells/well in three 96 well plates. Plates were incubated overnight at 37° C. and allowed to recover. Cells were washed with 150 μL of DPBS and 90 μL of fresh media was added to each well. The cells were then treated with a dose response of the selected compounds. Compounds were diluted from stock concentrations (10 mM in DMSO). Serial dilutions were made in DMSO, yielding 8 total different concentrations per compound. At time of compound addition, the control plate was analyzed using Cell TiterGlo to set baseline for proliferation. Compound treated cells were allowed to grow at 37° C./5% CO2 for 72 hours then analyzed using Cell TiterGlo according to kit protocol.
# [2] = test system: phospho-ERK1/2 to total ERK1/2 in A375 cells; experiment: A375 pERK/ERK dose response study (MSD); format: cell-based; details: Homo sapiens, A-375, ratio of phospho-ERK1/2 to total ERK1/2
# Protocol: A375 pERK/ERK Dose Response Study:
# Briefly, A375 cells were plated at 30,000 cells/well in 2×96 well plates, allowed to recover overnight, washed and fed fresh media the next day then treated with a dose response of the selected compounds. Following the determined pretreatment time with the compounds at 37° C./5% CO2, the media was aspirated, and cells lysed with cold, complete MESO Scale Discovery (MSD) lysis buffer. pERK and total ERK1/2 levels were measured using MESO Scale Discover Phospho(Thr202/Tyr204; Thr185/Tyr187)/Total ERK1/2 kits. The protocol and all reagents were provided in the kit. All wells were blocked with 150 μl Blocking Solution for one hour. […] of lysis buffer was added per well and incubated overnight at 4° C. Following the overnight incubation, the wells were washed three times with Tris Wash buffer, then […] of 1× Detection Antibody was added per well and incubated at room temperature for one hour with vigorous shaking. All wells were then washed three times with Tris Wash Buffer before 150 μl of 1× Read Buffer was added per well and the plates read using the MSD Sector Imager. Data were calculated as a ratio of phospho-ERK1/2 to total ERK1/2 to allow for normalization of the samples.
# [3] = test system: pRSK/RSK in A375 cells; experiment: A375 pRSK/RSK dose response study (ELISA); format: cell-based; details: Homo sapiens, A-375, pRSK and total RSK ELISA
# Protocol: A375 pRSK/RSK Dose Response Study
# Briefly, A375 cells were plated at 30,000 cells/well in 2×96 well plates, allowed to recover overnight, washed and fed fresh media the next day then treated with a dose response of the selected compounds. Following the determined pretreatment with the compounds at 37° C./5% CO2 the media was aspirated, and cells lysed with cold, complete MSD lysis buffer. pRSK and total RSK were analyzed using CST/PathScan pRSK and total RSK ELISAS according to the respective kit protocols. All samples were analyzed at 90% of remaining sample in pRSK and 10% of remaining sample in total RSK ELISA, which was performed following kit protocols.
# [4] = Half-life determination in human liver microsomes; format: in vitro ADME; details: for half-life at 1 μM: human, NADPH
# Protocol: Human microsomes from a pool of 10 donors was obtained from a commercial source. Microsomes prepared in potassium phosphate buffer were spiked with ulixertinib, Formula 18, Formula 19, and Formula 21 individually in replicates of six at a final concentration of 1 μM. NADPH was used to initiate the experiment; a control of minus NADPH (minus cofactor) was also run in parallel to the human liver microsome stability. After spiking with test article, microsome replicates were placed in a 37° C. incubator with the following time course: 0, 5, 10, 15, 20, 30, 45 and 60 minutes. Samples were extracted with a protein precipitation quench consisting of ice cold acetonitrile containing internal standard (tolbutamide). Samples were analyzed for ulixertinib, Formula 18, Formula 19, and Formula 21. The half-lives of ulixertinib, Formula 18, Formula 19, and Formula 21 were characterized by the […] to determine the elimination rate (ke) and using the formula described below.
# [formula] • ke (elimination rate): the slope of ln(percent remaining) vs time (in minutes)
# [5] = Steady-state exposure of ulixertinib and metabolites in rat; format: in vivo; details: for % of total Ulixertinib related exposure: day 5, steady state; for AUC at 5 day: in vivo, day 5, non-isotopically enriched ulixertinib and related metabolites, read-out: Steady-State AUC (Mean ± SD)
# Description: (§1) The steady state exposure levels of non-isotopically enriched parent ulixertinib and related metabolites in rat (day 5) and human subjects (day 15) is provided in TABLE 1 below: […]
# [6] = Steady-state exposure of ulixertinib and metabolites in human subjects; format: in vivo; details: for % of total Ulixertinib related exposure: day 15, steady state; for AUC at 15 day: in vivo, day 15, non-isotopically enriched ulixertinib and related metabolites, read-out: Steady-State AUC (Mean ± SD)
# Description: as §1
# [7] = Pharmacokinetics and metabolite formation in rats; format: in vivo, rat; details: rat, in vivo; for AUC(0-t) / half-life: both sexes, po, 12.5 mg/kg; for AUC0-12 M2, percent change relative to Ulixertinib / AUC0-12 M3, percent change relative to Ulixertinib / AUC0-12 M6, percent change relative to Ulixertinib / AUC0-12 Parent, percent change relative to Ulixertinib / Half-life, percent change relative to Ulixertinib / longer mean half-life than ulixertinib: both
# Protocol: Ulixertinib, Formulas 18A, 19A, and 21A were dosed twice daily (12 hours apart, ±30 minutes) for five consecutive days (10 doses/animal) to rats via oral gavage (PO). Each compound was administered at a dose of 12.5 mg/kg to 6 rats (3 male/3 female, N=6 rats/compound). Each compound was formulated in 1% (w/v) carboxymethylcellulose (CMC) in water at a concentration of 1.25 mg/mL. Following the second (p.m.) dose on Day 5, blood samples were collected from each rat at approximately 0.5, 1, 2, 4, 6, 8, and 12 hours post-dose. Blood samples were centrifuged to obtain plasma. Plasma samples were analyzed for concentrations of the dosed compounds and selected metabolites using an established LC-MS/MS method. The lower limit of quantitation of each compound was 1.00 ng/mL. The rat half-life values (determined by non-compartmental analysis using WinNonlin software) for each compound are shown in Table 7, and the areas under curve from time 0 to hour 12 (AUC0-12), calculated using the linear trapezoidal rule, for each dosed compound and selected metabolites are presented in Table 8.
Compound,% of total Ulixertinib related exposure [5],AUC at 5 day [5],% of total Ulixertinib related exposure [6],AUC at 15 day [6],AUC(0-t) [7],half-life [7],"AUC0-12 M2, percent change relative to Ulixertinib [7]","AUC0-12 M3, percent change relative to Ulixertinib [7]","AUC0-12 M6, percent change relative to Ulixertinib [7]","AUC0-12 Parent, percent change relative to Ulixertinib [7]","Half-life, percent change relative to Ulixertinib [7]",longer mean half-life than ulixertinib [7],further results
"[2H]C(C)(C)Nc1cc(-c2c[nH]c(C(=O)N[C@H](CO)c3cccc(Cl)c3)c2)c(Cl)cn1 [Formula 21, 4-(5-chloro-2-((propan-2-yl-2-d1)amino)pyridin-4-yl)-N-(1-(3-chlorophenyl)-2-hydroxyethyl)-1H-pyrrole-2-carboxamide]",–,–,–,–,–,–,–,–,–,–,–,–,"IC50 [1]: 310 nM; IC50 [2]: 64 nM; IC50 [3]: 37 nM; longer half-life than ulixertinib ([4]; Table 5): 30%; half-life at 1 μM ([4]; Rep 1, read-out: Half-life, t½, Rep 1): 1.01 h; half-life at 1 μM ([4]; Rep 2, read-out: Half-life, t½, Rep 2): 1.26 h; half-life at 1 μM ([4]; Rep 3, read-out: Half-life, t½, Rep 3): 1.07 h; half-life at 1 μM ([4]; Rep 4, read-out: Half-life, t½, Rep 4): 1.02 h; half-life at 1 μM ([4]; Rep 5, read-out: Half-life, t½, Rep 5): 0.992 h; half-life at 1 μM ([4]; Rep 6, read-out: Half-life, t½, Rep 6): 1.01 h; half-life at 1 μM ([4]; six replicates, read-out: Half-life, t½, Mean ± SD): 1.06 ± 0.102 h; Half-life, % change relative to ulixertinib ([4]; mean): (+30%)"
Cl.[2H]C([2H])([2H])C(Nc1cc(-c2c[nH]c(C(=O)N[C@H](CO)c3cccc(Cl)c3)c2)c(Cl)cn1)C([2H])([2H])[2H] [Formula 19A],–,–,–,–,199000 ng·h/mL,4 h,(−17%^a),(−84%^a),(−35%),(+15%^a),(+9%^a),9%,–
Cl.[2H]C([2H])([2H])C([2H])(Nc1cc(-c2c[nH]c(C(=O)N[C@H](CO)c3cccc(Cl)c3)c2)c(Cl)cn1)C([2H])([2H])[2H] [Formula 18A],–,–,–,–,228000 ng·h/mL,4.18 h,(−4%^a),(−75%^a),(+25%^a),(+32%^a),(+14%^a),14%,–

# Further lines, with some results ahead:
% of total Ulixertinib related exposure [5],AUC at 5 day [5],% of total Ulixertinib related exposure [6],AUC at 15 day [6],AUC(0-t) [7],half-life [7],"AUC0-12 M2, percent change relative to Ulixertinib [7]","AUC0-12 M3, percent change relative to Ulixertinib [7]","AUC0-12 M6, percent change relative to Ulixertinib [7]","AUC0-12 Parent, percent change relative to Ulixertinib [7]","Half-life, percent change relative to Ulixertinib [7]",longer mean half-life than ulixertinib [7],Compound,further results
0.6%,1200 ± 200 ng·h/mL,4.3%,3400 ± 2300 ng·h/mL,–,–,–,–,–,–,–,–,C[C@@H](CO)Nc1cc(-c2c[nH]c(C(=O)N[C@H](CO)c3cccc(Cl)c3)c2)c(Cl)cn1 [Formula 35],–
0.2%,400 ± 200 ng·h/mL,8.2%,6500 ± 5500 ng·h/mL,–,–,–,–,–,–,–,–,C[C@H](Nc1cc(-c2c[nH]c(C(=O)N[C@H](CO)c3cccc(Cl)c3)c2)c(Cl)cn1)C(=O)O [Formula 37],–
8.1%,15900 ± 4700 ng·h/mL,49.9%,39400 ± 12000 ng·h/mL,–,–,–,–,–,–,–,–,C[C@H](CO)Nc1cc(-c2c[nH]c(C(=O)N[C@H](CO)c3cccc(Cl)c3)c2)c(Cl)cn1 [Formula 34],Formula 34/Ulixertinib steady-state AUC ratio ([5]; day 5): 0.09; Formula 34/Ulixertinib steady-state AUC ratio ([6]; day 15): 1.3
